Laboratory results taken from patent publication US6231875A, “Acidified composition for topical treatment of nail and skin conditions” (Johnson & Johnson Consumer Companies, Inc., priority 1999, dated 2001).

System: onychomycosis
Assay: not given
Conditions: after nail removal; cited from earlier work

Row | SMILES | Effectiveness in topically treating onychomycosis
1 | CC(=O)N1CCN(c2ccc(OCC3COC(Cn4ccnc4)(c4ccc(Cl)cc4Cl)O3)cc2)CC1 (stereo not drawn) [ketoconazole] | effective
2 | Clc1ccc(COC(Cn2ccnc2)c2ccc(Cl)cc2Cl)c(Cl)c1 (stereo not drawn) [miconazole] | effective

System: not listed separately
Assay: pH measurement of acidifiers with a glass electrode
Type: physicochemical
Conditions: after 1 min
From the text: Apparent pH is the pH reading measured by a glass pH electrode. The preferred acidifiers are 37% HCl, 10% HCl, sulfuric acid, o-phosphoric acid, nitric acid, acetic acid, L (+)-lactic acid, salicylic acid, and glycolic acid. The particularly preferred acidifiers are 37% HCl and 10% HCl. If the total weight of the acidified composition is 100 parts, the acidifier should be about 0.05 to about 50% w/w (w/w=weight/weight), preferably, from about 0.1% to about 10%, more preferably form about 0.5% to about 5%.

Row | SMILES | pH reading
3 | CC(=O)O [Acetic acid] | -0.19 to -0.28
4 | O=C(O)CO [Glycolic Acid] | 0.43
5 | C[C@H](O)C(=O)O [L(+)-lactic acid] | 0.31
6 | O=C(O)c1ccccc1O [Salicylic acid] | 2.92
